Laboratory results as given in ChEMBL document CHEMBL1909606, “Polarization in the structures of uracil and thiouracils: Implication for binding with orotidine 5'-monophosphate decarboxylase” (Bioorg Med Chem Lett, 2011).

Assay: Binding affinity to orotidine-5'-monophosphate decarboxylase relative to uracil

Q: With `Oc1nccc(S)n1` as the compound, how does the relative binding affinity (RBA) read?
A: The relative binding affinity (RBA) was 61.

Q: With `O=c1cc[nH]c(=S)[nH]1` as the compound, how does the relative binding affinity (RBA) read?
A: The relative binding affinity (RBA) was 29.
